Laboratory results published in patent US20130045162A1, “DELIVERY SYSTEM FOR SPECIFICALLY TARGETING CANCER CELLS AND METHOD OF USE THEREOF” (MOREHOUSE SCHOOL OF MEDICINE, priority 2011, published 2013).
Read-outs that look alike come from different tables or passages of the source.

What was measured:
FR1 = FR1 (Homo sapiens, UniProt P15328); details: read-out: affinity for FR1; cited from earlier work
FR2 = FR2 (Homo sapiens, UniProt P14207); details: read-out: affinity for FR2; cited from earlier work
[1] = test system: BrCa cells (MCF-7, MDA-MB-231, and 4T1); experiment: BrCa cell death / apoptosis in culture; type: cell-based; details: 20 μM, after 24 hr of culture
Source text: (§1) The folate coated PBM nanoparticles are further loaded with docetaxel, carboplatin, or cisplatin. […] However, PBM nanoparticles containing 10× less chemotherapeutic agent were taken up and induced the same level of BrCa cell apoptosis as cisplatin, docetaxel, or carboplatin solution, respectively, but not primary breast epithelial cells. […] Accordingly, the novel PBM nanoparticles of the present application enhance BrCa therapy efficacy, reduce toxicities, and increase breast tumor immunity.

[2] = test system: normal (primary) breast epithelial cells; experiment: normal breast epithelial cell death / apoptosis in culture; type: cell-based; details: 20 μM, after 24 hr of culture
Source text: as §1

[3] = test system: MDA-MB-231-Luc xenografts; experiment: tumor regression in MDA-MB-231-luc tumor-bearing mice; type: in vivo; details: 8 mg/kg/week, intravenous injection
[4] = test system: PCa cells (PC3 and PTEN-CaP2); experiment: PCa cell death / apoptosis in vitro; type: cell-based, human; mouse; details: 20 μM
[5] = test system: normal prostatic epithelial cells (PrEC and RWPE-1); experiment: normal prostatic epithelial cell death in vitro; type: cell-based; details: 20 μM
PC3-luc tumor = experiment: tumor regression in PC3-luc tumor-bearing mice; type: in vivo; details: 8 mg/kg/week, intravenous injection
[6] = parameters: species or system mice; details: mouse, in vivo
Method: Serum is collected at sacrifice and urea N2, creatine, P, Ca, Na, K, Cl, bicarbonate, alkaline phosphatase, alanine transaminase (ALT), aspartate aminotransferase (AST), creatine kinase (CK), cholesterol, total bilirubin, total protein, albumin, globulin, albumin/globulin ratio, glucose and amylase are measured.

[7] = test system: DU145 (prostate cancer cell line); experiment: DU145 apoptosis, ImageStream (TUNEL/DRAQ5); type: cell-based; details: 20 uM, 1 hour, wash, 48 hours
Method: (§2) DU145 (prostate cancer cell line) and PrEC (primary prostatic epithelial cells) cells were treated with cisplatin solution or cisplatin-containing and cancer cell-binding peptides (I, II, III, and IV)- or folate-conjugated polycaprolactone-coated PBM nanoparticles, or uncoated nanoparticles. […] Apoptotic cells were identified using two standard image based features from the IDEAS package: Area and Spot Small Total. Condensed apoptotic nuclei have lower nuclear area value as compared to live cells.

[8] = test system: PrEC (primary prostatic epithelial cells); experiment: PrEC apoptosis, ImageStream (TUNEL/DRAQ5); type: cell-based; details: 20 uM, 1 hour, wash, 48 hours
Method: as §2

[9] = cited from earlier work
[10] = test system: PC3-luc and PTEN-CaP2-luc tumor; experiment: Example 5 intratibia PC3-luc / PTEN-CaP2-luc tumor model; type: in vivo, mice; details: intravenous
Method: To mimic advanced (bone metastasis) PCa, NIH-III or B6 male mice receiving vitamin D-deficient or normal diets are injected in left tibia with PC3-luc or PTEN-CaP2-luc cells, respectively. […] Microscopic and morphometric analysis determine the significance of treatments on prostate tumor apoptosis and change in the frequency or survival of PCa cells. […] Blood samples are used to determine serum docetaxel and oxaliplatin PK/PD by mass spectrometry.
NIH-III and B6 male mice are purchased from Jackson Laboratories. Animals are housed and maintained in microbial isolator cages under conventional housing conditions at the Morehouse School of Medicine's animal facility. The guidelines proposed by the committee for the Care of Laboratory Animal Resources Commission of Life Sciences—National Research Council are followed to minimize animal pain and distress. Eight to ten week old mice are injected in the right tibia with 10^6 PTEN-P2-luc (matched benign), PTEN-CaP2-luc (prostate adenocarcinoma), or PC3-luc cells. To assess the affects of hormone ablation on cytotoxic drug or PBM nanoparticle susceptibility, another group of mice is castrated after prostate tumor detection.

[11] = test system: spontaneous PCa in PBcre4+cPten−/− luc+ and PBcre4+cPten−/− luc+ cav1+ mice; experiment: Example 6 spontaneous prostate tumor model (cPten−/− luc mice); type: in vivo; details: for metastatic lesions: alone or encapsulated
Source text: PBM nanoparticle effects on spontaneous tumor and Treg cell development are examined using cPten^−/−PBcre4^+luc^+ or cPten^−/−PBcre4^+luc^+cav1^+ (castrated or noncastrated) mice. Pten^floxed/floxedluc^+ without the Cre gene, which serve as negative tumor controls, and male cPten^−/− PBcre4^+luc^+ or cPten^−/−PBcre4^+luc^+cav1^+ (castrated or noncastrated) mice are imaged every week during PCa development from murine PIN (6 weeks of age), invasive adenocarcinoma (>9 weeks of age), and metastatic lymph node, lung and possibly bone at 12 weeks of age. After 9 weeks of age, tumors are allowed to progress to a net increase of 10^5 photons/sec/cm^2 from luminescence detected in mice <9 weeks of age. A set of mice is castrated to study androgen-independent hormone refractory PCa and another set is not castrated to further study the progression of PTEN-mediated PCa with androgens. […] Microscopic and morphometric analysis determine the significance of treatments on prostate tumor apoptosis and change in the frequency or survival of secretory luminal, basal, neuroendocrine and proliferating PCa cells. […] The proliferation of purified T lymphocytes is measured after CD3 plus CD28 stimulation (i.e., incubation on antibody-coated plates) with or without FR4 to assess Th1/Th2 cell proliferation. […]
Despite being homozygous for Pten gene deletion, the individual PBcre4^+ cPten^−/− luc^+ and PBcre4^+ cPten^−/− luc^+ cav1^+ mice will have different copies of active luciferase (L) gene. The copy number of trans L genes are determined and confirmed by multiplex polymerase chain reaction amplification and Southern blot analysis to insure the number of L genes responsible for luciferase will not change from experiment to experiment. […]

PTEN-CaP2-luc tumor = experiment: Example 7 PTEN-CaP2-luc tumor in B6 and B6.Xpc−/− mice; type: in vivo
Method: (§3) To mimic advanced (bone metastasis) PCa in ERCC1 variant individuals, B6 and B6.Xpc^−/− mice are injected in left tibia PTEN-CaP2-luc cells. Tumor progression is followed non-invasively in non-castrated mice using our Caliper/Xenogen IVIS-100 imaging system. After tumors emit luminescence >10^5 photons/sec/cm^2, one set of mice is castrated (i.e., to mimic androgen ablation) and the second set is not. […] Mice are imaged every week to monitor tumor progression/regression. When tumors in negative control (saline vehicle treated only) exceed 10^8 photons/sec/cm^2, groups in each set are sacrificed. […] The number and activity of peripheral, lymph node and tumor-associated lymphocytes are isolated and CD4^+ T cells affinity purified and intracellularly and surface stained for flow cytometry analysis of Th1, Th2, Th17, and cell frequency as before. Specifically, the proliferation of purified T lymphocytes after CD3 plus CD28 stimulation with or without FR4 to access Th1/Th2 cell proliferation as before. Along with weekly bioluminescence imaging, blood chemistry and peripherial blood leukocyte subpopulations are monitored to evaluate tumor- or drug-associated toxicities that may be associated with Xpc deficiency.

[12] = mouse, in vivo
Method: as §3

[13] = Example 7 systemic toxicities in B6 and B6.Xpc−/− mice; details: B6.Xpc−/− mice compared to B6 mice
Method: as §3

[14] = optimal dose 10 mg/kg/week, both B6 and B6.Xpc−/− mice

Sequence of FR2 (P14207 17-230): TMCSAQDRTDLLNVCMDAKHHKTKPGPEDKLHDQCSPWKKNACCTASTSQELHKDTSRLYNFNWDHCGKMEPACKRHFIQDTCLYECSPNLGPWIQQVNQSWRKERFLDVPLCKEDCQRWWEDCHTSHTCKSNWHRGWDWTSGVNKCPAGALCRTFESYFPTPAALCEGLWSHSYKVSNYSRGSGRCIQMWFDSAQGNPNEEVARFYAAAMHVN
Sequence of FR1 (P15328 25-234): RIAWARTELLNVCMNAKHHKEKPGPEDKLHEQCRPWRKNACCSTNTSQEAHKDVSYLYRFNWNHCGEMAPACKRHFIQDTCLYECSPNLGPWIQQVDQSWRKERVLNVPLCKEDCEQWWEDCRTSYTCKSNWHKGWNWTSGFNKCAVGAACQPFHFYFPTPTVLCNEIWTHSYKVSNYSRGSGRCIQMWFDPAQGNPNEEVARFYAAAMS

In the case of `CN1c2c(nc(N)[nH]c2=O)NC[C@@H]1CNc1ccc(C(=O)N[C@@H](CCC(=O)O)C(=O)O)cc1` [6S 5-methyltetrahydrofolate], the Kd (FR1) is listed as 0.055 µM and the Kd (FR2) is listed as 0.001 µM.

With `[NH2][Pt]([NH2])([Cl])[Cl]` [Cisplatin solution, cisplatin] the cell death [1] was greater than 90%, the cell death [2] was greater than 90% and the tumor regression [3] was “significant (and similar) tumor regression”. The cell death [4] was greater than 90%, the cell death [5] was greater than 90% and the tumor regression (PC3-luc tumor) was “significant (and similar) tumor regression”. The Albumin [6] was 4.2 ± 0.6 g/dL, the Albumin/Globulin ratio [6] was 4.22 ± 2.41 and the “Alk Phos” value [6] was 160 ± 34.64 U/L. For the same compound, the Amylase [6] was 2062 ± 371.44 U/L, the Bicarbonate [6] was 10.2 ± 1.04 mmol/fL and the CK [6] was 3975 ± 45 U/L. It also gave a Calcium [6] of 1.2 ± 0 mg/dL, a Cholestrol [6] of 84 ± 10.39 mg/dL and a Cl [6] of 106 ± 3.46 mEq/l. For the same compound, the Creatinin [6] was 0.8 ± 0.35 mg/dL, the Globulins [6] was 1.2 ± 0.6 g/dL and the Glucose [6] was 52 ± 17.32 mg/dL. The K [6] was 9.2 ± 012 mEg/l, the Na [6] was 152 ± 3.46 mEq/l and the Phosphorus [6] was 72 ± 0 mg/dL. The “Total Bilirubin” value [6] was 0.6 ± 0 mg/dL, the Total protein [6] was 5 ± 0.35 g/dL and the “Urea N2” value [6] was 36 ± 0 mg/dL. The “apoptosis of DU145 cells” value [7] was “apoptosis of both DU145 and PrEC cells” and the “apoptosis of PrEC cells” value [8] was “apoptosis of both DU145 and PrEC cells”.

In the case of `COc1cc(/C=C/C(=O)CC(=O)/C=C/c2ccc(O)c(OC)c2)ccc1O` [Free curcumin, diferuloylmethane], the solubility in water [9] is given as “completely insoluble in water”.

With `CC(=O)O[C@@]12CO[C@@H]1C[C@H](O)[C@@]1(C)C(=O)[C@H](O)C3=C(C)[C@@H](OC(=O)[C@H](O)[C@@H](NC(=O)OC(C)(C)C)c4ccccc4)C[C@@](O)([C@@H](OC(=O)c4ccccc4)[C@H]21)C3(C)C` [docetaxel] the tumor regression ([10]; optimal dose 10 mg/kg/week) was “tumor regression”, the tumor regression ([10]; suboptimal dose 0.1 mg/kg/week) was “not suboptimal” and the metastatic lesions [11] was “fewer metastatic lesions”. The tumor regression (PTEN-CaP2-luc tumor; [14]) was “tumor regression”, the tumor regression (PTEN-CaP2-luc tumor; suboptimal dose 0.1 mg/kg/week) was “not suboptimal” and the “toxicities (elevated AST & ALT, hypocalcemia and hypoglycemia)” value [12] was “significantly higher toxicities”.

With `O=C1[O][Pt]2([NH][C@@H]3CCCC[C@H]3[NH]2)[O]C1=O` [oxaliplatin] the tumor regression ([10]; optimal dose 10 mg/kg/week) was “tumor regression”, the tumor regression ([10]; suboptimal dose 0.1 mg/kg/week) was “not suboptimal” and the metastatic lesions [11] was “fewer metastatic lesions”. The neuroendocrine differentiation ([11]; mouse, in vivo) was “reduced”, the tumor regression (PTEN-CaP2-luc tumor; [14]) was “tumor regression” and the tumor regression (PTEN-CaP2-luc tumor; suboptimal dose 0.1 mg/kg/week) was “not suboptimal”. The “toxicities (elevated AST & ALT, hypocalcemia and hypoglycemia)” value [13] was “significantly higher toxicities”.
